Tested on: M. tuberculosis strains resistant to 1
Assay type: cell-based

## O=C(Nc1nnc(C2CCC2)o1)NC1C2CC3CC(C2)CC1C3 (centres unmarked) [Compound 51, 1-(2-adamantyl)-3-(5-cyclobutyl-1,3,4-oxadiazol-2-yl)urea]
  Cross resistance with strains resistant to 1: confirmed as on target against MmpL3

## CC(C)(C)c1cc(NC(=O)NC2C3CC4CC(C3)CC2C4)no1 (centres unmarked) [Compound 46, 1-(2-adamantyl)-3-(5-t-butylisoxazol-3-yl)urea]
  Cross resistance with strains resistant to 1: confirmed as on target against MmpL3

Reference: PMC3780361 (Bioorganic & medicinal chemistry, 2013)
